Holding throughout (type): cell-based, human
The subject of experiment [1] is iPS-derived hematopoietic progenitors and phenotypic HSCs. Kind of experiment: Differentiation into lymphocytes on OP9 and OP9delta feeder lines, FACS. As to conditions: cells generated from iPS cells with DEAB at 10 uM; 14 to 21 days. The method, then: (§1) The differentiation cultures were trypsinized at the indicated time points and single-cell suspensions were generated following trypsinization. For the Colony Forming Unit (CFU) assays using methyl cellulose cultures, 25% of the cells were plated in 2 ml of MethoCult H4435 (STEMCELL Technologies, Vancouver, BC) in six-well plates. Alternatively, sorted CD45+, CD43+, CD34+, 7AAD-cells were sorted and plated at 500 cells per 2 ml Methocult media. Cells were incubated for 14 days in a humidified incubator at 37° C. with 5% CO2 and evaluated for colonies by bright-field microscopy (Zeiss (Oberkochen, Germany, www.zeiss.com) Axiovert 200 with a Zeiss Axiocam), Cells were resuspended in PBS supplemented with 2% FBS. For the lymphoid myeloid differentiation assays, either CD45+, CD43+, CD34+, 7AAD-hematopoietic progenitors, or CD45+, CD43+, CD34+, CD38−, CD90+, CD45RA− phenotypic HSCs were plated at 20-40 cells per well onto OP9 and OP9delta feeder lines for B-cell and T-cell differentiation, respectively, as previously described (Nozad Charoudeh H, Tang Y, Cheng M, Cilio C M, Jacobsen S E, Sitnicka E., Identification of an NK/T cell-restricted progenitor in adult bone marrow contributing to bone marrow- and thymic-dependent NK cell, Blood, 2010 Jul. 15; 116(2):183-92. NK cell differentiation as well as myeloid cell differentiation was also detected in this differentiation system. […]

In another experiment the test system is ES and iPS cells. The experiment is described as follows: Small molecule screen, FACS of cells differentiated from pluripotent stem cells. As to conditions: relative to DMSO control, DEAB 10 μM, rapamycin 0.1 μM. How it is done:
Cells from the differentiation cultures were collected at time points indicated and washed in phosphate-buffered saline (PBS) supplemented with 2% FBS. Adherent cells were individualized using TrypLE (Life Technologies, Carlsbad Calif.), passed through a 27.5-gauge needle and filtered through a 40-70 μm cell strainer (BD Falcon, San Diego, Calif., www.bdbiosciences.com). Cells were treated with 7-aminoactinomycin D (7AAD) before analysis, and positive cells were gated out of results. Cells were stained with fluorescence-conjugated antibodies for the hematopoietic stem and progenitor cell markers CD45, CD43, CD34, CD38, CD90; CD45RA. Cells were analyzed on a FACS Canto (BD, Franklin Lakes, N.J., www.bd.com).
A small molecule screen was performed to identify compounds that improve the output of hematopoietic progenitor cells (HPCs; CD45+, CD43+, CD34+) and phenotypic hematopoietic stem cells (HSCs; CD45+, CD43+, CD34+, CD38−, CD90+, CD45RA−) differentiated from pluripotent stem cells. Molecules targeting pathways known or suspected of being important in hematopoiesis were screened. […] Cells were analyzed using fluorescence activated cell sorting (FACS; FIGS. 3A, 3B, and 3C) and CFU-GEMM assays (FIG. 3D). […]

Experiment [2] deals with hematopoietic progenitor cells differentiated from iPS cells. The experiment is described as follows: Colony Forming Unit (CFU) assay in methyl cellulose with DEAB. The following applies: 10 µM DEAB; 14 days MethoCult. The method, then:
as §1

Turning to `CCN(CC)c1ccc(C=O)cc1` [DEAB, 4-diethylaminobenzaldehyde], the “ability of generated HSCs to differentiate into lymphoid cells (B, NK, T)” value in experiment [1] is “capable of differentiating to each type of tested lymphocyte”. Further, the “output of total blood cells (CD45+, CD43+)” value with ES and iPS cells (FIG. 3C) is “increased”. Besides, the “output of HSCs (CD45+, CD43+, CD34+, CD38−, CD90+, CD45RA−)” value with ES and iPS cells (FIGS. 3A and B) is on record as “increased”. Further, in experiment [2], the “levels of all four major CFU assay types (CFU-G, CFU-M, CFU-GEMM, BFU-E)” value is “measurable levels” and the “total number of colonies vs cells not differentiated in the presence of DEAB (DMSO control)” value was “more than double”.
